Series [1] deals with Macrophage. Nature of the series: Inhibition of LPS-induced TNFalpha production in mouse lung macrophages at 10 uM pre-incubated 4 hrs before LPS stimulation for 8 hrs by ELISA. The series is classed as functional, cell-based. The conditions noted are these: time 12.0 hrs.
The subject of series [2] is Macrophage. The experiment in a line: Inhibition of LPS-induced IL6 production in mouse lung macrophages at 10 uM pre-incubated 4 hrs before LPS stimulation for 8 hrs by ELISA. It counts as functional, cell-based. The conditions noted are these: time 12.0 hrs. On the technique in general: In an ELISA, binding on a coated surface is turned into a signal by an enzyme label.

For series [3], the system named is Mus musculus. The experiment in a line: Anti-inflammatory activity in BALB/c mouse model of LPS-induced ALI assessed as reduction in LPS-induced TNFalpha in BALF at 5 mg/kg dosed via intranasal insuffIation pre-treated 2 hrs before LPS stimulation for 16 hrs. It counts as functional, organism-based. The conditions noted are these: dose mg/kg 5-10, time 18.0 hrs.

Series [4] concerns Mus musculus. The experiment in a line: Anti-inflammatory activity in BALB/c mouse model of LPS-induced ALI assessed as reduction in LPS-induced IL6 in BALF at 5 mg/kg dosed via intranasal insuffIation pre-treated 2 hrs before LPS stimulation for 16 hrs. It counts as functional, organism-based. The settings on record: dose mg/kg 5-10, time 18.0 hrs.
Series [5] deals with Mus musculus. Nature of the series: Anti-inflammatory activity in BALB/c mouse model of LPS-induced ALI assessed as reduction in LPS-induced extravasated BALF protein in BALF at 5 mg/kg dosed via intranasal insuffIation pre-treated 2 hrs before LPS stimulation for 16 hrs. The series is classed as functional, organism-based. The settings on record: dose mg/kg 5-10, time 18.0 hrs.

The test system of series [6] is Mus musculus. The experiment in a line: Anti-inflammatory activity in BALB/c mouse model of LPS-induced ALI assessed as reduction in LPS-induced TNFalpha in plasma at 5 mg/kg dosed via intranasal insuffIation pre-treated 2 hrs before LPS stimulation for 16 hrs. The series is classed as functional, organism-based. The conditions noted are these: dose mg/kg 5-10, time 18.0 hrs.

For series [7], the system named is Mus musculus. Nature of the series: Anti-inflammatory activity in BALB/c mouse model of LPS-induced ALI assessed as reduction in LPS-induced IL6 in plasma at 5 mg/kg dosed via intranasal insuffIation pre-treated 2 hrs before LPS stimulation for 16 hrs. The series is classed as functional, organism-based. The settings on record: dose mg/kg 5-10, time 18.0 hrs.
In series [8] the test system is Mus musculus. The experiment in a line: Anti-inflammatory activity in BALB/c mouse model of LPS-induced ALI assessed as reduction in lung wet-to-dry ratios at 5 mg/kg dosed via intranasal insuffIation pre-treated 2 hrs before LPS stimulation for 16 hrs. The series is classed as functional, organism-based. The settings on record: dose mg/kg 5-10, time 18.0 hrs.
Series [9] relates to Mus musculus. Nature of the series: Anti-inflammatory activity in BALB/c mouse model of LPS-induced ALI assessed as reduction in number of neutrophils BALF at 5 mg/kg dosed via intranasal insuffIation pre-treated 2 hrs before LPS stimulation for 16 hrs. It counts as functional, organism-based. The conditions noted are these: dose mg/kg 5-10, time 18.0 hrs.
The subject of series [10] is Mus musculus. Nature of the series: Anti-inflammatory activity in BALB/c mouse model of LPS-induced ALI assessed as reduction in LPS-induced TNFalpha in BALF at 10 mg/kg dosed via intranasal insuffIation pre-treated 2 hrs before LPS stimulation for 16 hrs. The settings on record: time 18.0 hrs. It counts as functional, organism-based.
In series [11] the test system is Mus musculus. Nature of the series: Anti-inflammatory activity in BALB/c mouse model of LPS-induced ALI assessed as reduction in LPS-induced IL6 in BALF at 10 mg/kg dosed via intranasal insuffIation pre-treated 2 hrs before LPS stimulation for 16 hrs. The series is classed as functional, organism-based. The conditions noted are these: time 18.0 hrs.
Series [12] has as its system Mus musculus. Nature of the series: Anti-inflammatory activity in BALB/c mouse model of LPS-induced ALI assessed as reduction in LPS-induced extravasated BALF protein in BALF at 10 mg/kg dosed via intranasal insuffIation pre-treated 2 hrs before LPS stimulation for 16 hrs. It counts as functional, organism-based. The settings on record: time 18.0 hrs.
In series [13] the test system is Mus musculus. The experiment in a line: Anti-inflammatory activity in BALB/c mouse model of LPS-induced ALI assessed as reduction in LPS-induced TNFalpha in plasma at 10 mg/kg dosed via intranasal insuffIation pre-treated 2 hrs before LPS stimulation for 16 hrs. It counts as functional, organism-based. The conditions noted are these: time 18.0 hrs.
Series [14] has as its system Mus musculus. Nature of the series: Anti-inflammatory activity in BALB/c mouse model of LPS-induced ALI assessed as reduction in LPS-induced IL6 in plasma at 10 mg/kg dosed via intranasal insuffIation pre-treated 2 hrs before LPS stimulation for 16 hrs. The series is classed as functional, organism-based. The settings on record: time 18.0 hrs.
The test system of series [15] is Mus musculus. Nature of the series: Anti-inflammatory activity in BALB/c mouse model of LPS-induced ALI assessed as reduction in lung wet-to-dry ratios at 10 mg/kg dosed via intranasal insuffIation pre-treated 2 hrs before LPS stimulation for 16 hrs. The series is classed as functional, organism-based. The settings on record: time 18.0 hrs.
The test system of series [16] is Mus musculus. The experiment in a line: Anti-inflammatory activity in BALB/c mouse model of LPS-induced ALI assessed as reduction in number of neutrophils BALF at 10 mg/kg dosed via intranasal insuffIation pre-treated 2 hrs before LPS stimulation for 16 hrs. It counts as functional, organism-based. The settings on record: time 18.0 hrs.
Series [17] relates to Macrophage. Nature of the series: Inhibition of calcineurin-NFATc3 interaction in mouse bone marrow-derived macrophages assessed as reduction in LPS-induced NFATc3 nuclear translocation at 1 uM pre-incubated before LPS stimulation for 1 hr using biotinylated compound by immunofluorescence staining assay.
Another series has as its system Jurkat. The experiment in a line: Inhibition of Calcineurin in human Jurkat cells. It counts as cell-based.
Series [18] can be described thus: Half life in human serum. The series is classed as ADME, cell-free.
The test system of the next series is HeLa. Nature of the series: Toxicity in human HeLa cells assessed as reduction in cell viability up to 25 uM incubated for 72 hrs by MTT assay. It counts as cell-based. Background: Formazan colour is commonly taken as a measure of viable cells.
Series [19] deals with Macrophage. The experiment in a line: Inhibition of calcineurin-NFATc3 interaction in mouse lung macrophages assessed as reduction in LPS-induced TNFalpha production at 0.01 to 10 uM pre-incubated 4 hrs before LPS stimulation for 8 hrs by ELISA. The series is classed as tissue-based. The conditions noted are these: dose microM 0.01-10, time 12.0 hrs.
For series [20], the system named is Macrophage. The experiment in a line: Inhibition of calcineurin-NFATc3 interaction in mouse lung macrophages assessed as reduction in LPS-induced IL6 production at 0.01 to 10 uM pre-incubated 4 hrs before LPS stimulation for 8 hrs by ELISA. It counts as tissue-based. The settings on record: dose microM 0.01-10, time 12.0 hrs.
Series [21] can be described thus: Toxicity in mouse lung macrophages cells assessed as reduction in cell viability up to 25 uM incubated for 72 hrs by MTT assay. The series is classed as tissue-based. The settings on record: macrophage.
A short description of series [22]: Drug uptake in cytosol in human HeLa cells assessed as cytosolic delivery efficiency at 5 uM incubated for 2 hrs by floe cytometry relative to control. It counts as ADME, subcellular.

SMILES strings stand for the structures. The source made the active and inactive calls. The calls are words filed in the database; no cut-off is given here. Positions of bridges follow the written chain, without caps; N, C: chain ends. Non-standard residues stand in square brackets, D forms with d. Residues, ends and D or L forms follow the SMILES beside them. Chains are numbered I, II in the order given. *: point of attachment. Benzoyl(2,3-Cl2) = O=C(c1cccc(Cl)c1Cl)*; 2Nal = N[C@@H](Cc1ccc2ccccc2c1)C(=O)O; Tle = CC(C)(C)[C@H](N)C(=O)O; AEEA = NCCOCCOCC(=O)O

Broadly, the half-life is the time in which the quantity being followed falls by half.

As to `CC(C)[C@H](NC(=O)[C@H](C)NC(=O)[C@@H](NC(=O)[C@@H]1CCCN1C(=O)[C@H](Cc1cnc[nH]1)NC(=O)[C@@H]1CCCN1C(=O)CNC(=O)COCCOCCNC(=O)CC[C@@H]1NC(=O)[C@@H](CCCNC(=N)N)NC(=O)[C@H](CCCNC(=N)N)NC(=O)[C@@H](CCCNC(=N)N)NC(=O)[C@H](CCCNC(=N)N)NC(=O)[C@H](Cc2ccc3ccccc3c2)NC(=O)[C@@H](Cc2ccccc2)NC1=O)C(C)C)C(=O)N[C@@H](C)C(=O)N[C@@H](C)C(=O)NCC(=O)N1CCC[C@H]1C(=O)N[C@@H](Cc1c[nH]cn1)C(=O)N[C@@H](CCC(=O)O)C(=O)N[C@@H](CCC(=O)O)C(=O)N[C@@H](CCCCN)C(N)=O`, the inhibition entry with Macrophage [1] and with Macrophage [2] was “Active” throughout. Further, the outcome in the series on Mus musculus [3], with Mus musculus [4], in the series on Mus musculus [5], with Mus musculus [6], in the series with Mus musculus [7] and in the series with Mus musculus [8] was inactive. Also, the outcome with Mus musculus [9], in the series on Mus musculus [10], in the series on Mus musculus [11], in the series on Mus musculus [12], in the series on Mus musculus [13] and in the series with Mus musculus [14] was inactive. Also, the outcome with Mus musculus [15] and with Mus musculus [16] was inactive. Besides, the inhibition result in the series with Macrophage [17] is “inactive”.
With `CC[C@H](C)[C@H](NC(=O)[C@@H](NC(=O)c1cccc(Cl)c1Cl)C(C)(C)C)C(=O)N[C@H](C(=O)N[C@H](C(=O)N[C@H](C(=O)N[C@@H](CCC(N)=O)C(=O)N[C@@H](Cc1c[nH]cn1)C(=O)N[C@H](CC(C)C)C(=O)N[C@@H](CO)C(=O)NCCOCCOCC(=O)N[C@@H](CCCCNC(=O)CC[C@@H]1NC(=O)[C@@H](CCCNC(=N)N)NC(=O)[C@H](CCCNC(=N)N)NC(=O)[C@@H](CCCNC(=N)N)NC(=O)[C@H](CCCNC(=N)N)NC(=O)[C@H](Cc2ccc3ccccc3c2)NC(=O)[C@@H](Cc2ccccc2)NC1=O)C(N)=O)[C@@H](C)O)[C@@H](C)CC)C(C)(C)O`, the inhibition result in the series with Jurkat is “Active”.
For `CC[C@H](C)[C@H](NC(=O)[C@@H](NC(=O)c1cccc(Cl)c1Cl)C(C)(C)C)C(=O)N[C@H](C(=O)N[C@H](C(=O)N[C@H](C(=O)N[C@@H](CCC(N)=O)C(=O)N[C@@H](Cc1c[nH]cn1)C(=O)N[C@H](CC(C)C)C(=O)N[C@@H](CO)C(=O)NCCOCCOCC(=O)N[C@@H](CCCCNC(=O)CC[C@@H]1NC(=O)[C@@H](CCCNC(=N)N)NC(=O)[C@H](CCCNC(=N)N)NC(=O)[C@@H](CCCNC(=N)N)NC(=O)[C@H](CCCNC(=N)N)NC(=O)[C@H](Cc2ccc3ccccc3c2)NC(=O)[C@@H](Cc2ccccc2)NC1=O)C(N)=O)[C@@H](C)O)[C@@H](C)CC)C(C)(C)C` (I: {Benzoyl(2,3-Cl2)}-[Tle]I[Tle]ITQH[dL]S[AEEA]K-NH2 / II: cyclo([2Nal]R[dR]R[dR]E[dF]); amide I:11-II:6), in series [18], the half-life is > 24 h. In addition, the Activity entry (in the series on HeLa; in series [21]) was “Non-Toxic” each time. Further, the outcome in the series with Mus musculus [3], in the series on Mus musculus [4], with Mus musculus [5], in the series on Mus musculus [6], in the series with Mus musculus [7] and with Mus musculus [8] was inactive. For the same compound, the result in the series with Mus musculus [9], in the series with Mus musculus [10], in the series with Mus musculus [11], with Mus musculus [12], in the series on Mus musculus [13] and in the series with Mus musculus [14] was inactive. For the same compound, the outcome with Mus musculus [15] and in the series on Mus musculus [16] was inactive. The inhibition result in the series with Macrophage [19] and in the series on Macrophage [20] was “inactive” throughout.
As to `N=C(N)NCCC[C@@H]1NC(=O)[C@H](Cc2ccc3ccccc3c2)NC(=O)[C@@H](Cc2ccccc2)NC(=O)[C@H](CCC(N)=O)NC(=O)[C@@H](CCCNC(=N)N)NC(=O)[C@H](CCCNC(=N)N)NC(=O)[C@@H](CCCNC(=N)N)NC1=O` (cyclo([2Nal]R[dR]R[dR]Q[dF])), the Drug uptake in [22] is recorded as 62%.

The values above are taken from ChEMBL document CHEMBL4699579, “A Peptidyl Inhibitor that Blocks Calcineurin-NFAT Interaction and Prevents Acute Lung Injury” (J Med Chem, 2020).
